Reference: paper PMC10175484, “Identification of three elevenin receptors and roles of elevenin disulfide bond and residues in receptor activation in Aplysia californica” (Scientific Reports, 2023)
Read-outs that look alike come from different tables or passages of the source. Where a SMILES comes first, the peptide text is derived from it. Bridges are numbered along the chain shown (N, C = ends).

How the values were obtained:
apElevR3 = test: IP1 accumulation assay, apElevR3 in CHO-K1 cells; assay type: cell-based, Aplysia californica; settings: for apElevR3 Log[EC50] (M): logarithm of molar EC50, IP1 accumulation, CHO-K1 transiently expressing apElevR3 (pcDNA3.1(+)), no Gα16 co-transfection, peptide 10^-12 to 10^-4 M, 1 h incubation, mean ± SEM, n = 3, NA = no activation, SEM
Excerpt: (§1) To determine whether the Aplysia elevenin can activate the putative elevenin receptors, we cloned apElevRs to pcDNA3.1 (+) plasmid and transfected the three apElevRs in CHO-K1 cells. We used an IP1 accumulation assay to measure the concentration of IP1, which is a by-product in the Gαq signaling pathway, to provide evidence for the activation of receptors by elevenin. […] Initially, we used the elevenin peptide at two concentrations of 10^–11 M and 10^–4 M to screen apElevR1, apElevR2, and apElevR3. […] Further, we used different concentration gradients of elevenin, ranging from 10^–12 to 10^–4 M, to generate the dose–response curves (Fig. 8B–E).
(§2) Gαq-coupled GPCRs stimulate PLC-β activity, resulting in increased cellular D-Myo-Inositol 1-Phosphate (IP1). When the G protein-coupled receptor (GPCR) expressed in CHO-K1 cells (Procell, CL-0062) is activated, it is generated by the Gαq pathway through the appropriate ligand, and IP3 is formed which is degraded to IP1. Therefore, IP1 can be used as an alternative to IP3. First, the putative receptor cloned into the mammalian expression vector pcDNA3.1( +) of Aplysia was transiently expressed in CHO-K1 cells. CHO-K1 cells were cultured in F-12 K medium (Gibco, 21,127–022) containing 10% fetal bovine serum (Genial, G11-70,500) at 37 °C and 5% CO2. When the cell density in the 6-well plate reached 70–90%, 1.5 μg of putative receptor plasmid [in pcDNA3.1( +)] was mixed with 200 μl buffer (Polyplus) in a 1.5 ml EP tube and incubated at room temperature for 10 min. The DNA/Transfection reagent (Polyplus) mixture was then added dropwise to the 6-well plate, mixed gently, and the cells were incubated overnight at 37 °C and 5% CO2. The next day, cells were digested, counted, diluted to a density of 40,0000 cells/ml, and replated in a white 384-well assay plate (Greiner bio-one, B14061RI), each well inoculated with the diluted liquid 50 μl and incubate overnight at 37 °C in 5% CO2. On the third day, the CHO cells were incubated for 1 h after adding peptide. The activation of putative receptors was detected by monitoring IP1 accumulation using the IP1 detection kit in Tecan Spark (Cisbio, 62IPAPEB). All procedures were performed according to the manufacturer's instructions for the IP1 assay kit. The elevenin peptide and analogs were synthesized by Sangon Biotech or Guoping Pharmaceutical (Supplementary Fig. 4) and were aliquoted in 50 nmol EP tubes and stored at -20 °C until use.
(§3) Dose–response curves and bar graphs for experimental data were plotted using Prism software (GraphPad). Data are expressed as the mean ± SEM. Final EC50 values are rounded to two significant figures. All experimental data were taken from individual animals or preparations, and n refers to the number of preparations. Data were considered significant when P < 0.05. Statistical tests were performed using Prism software. They included Student’s t-test (two groups) and one-way ANOVA (three or more groups).

apElevR2 = test: IP1 accumulation assay, apElevR2 in CHO-K1 cells; assay type: cell-based, Aplysia californica; settings: for EC50 / apElevR2 Log[EC50] (M): IP1 accumulation, NA = no activation; for apElevR2 Log[EC50] (M): logarithm of molar EC50, CHO-K1 transiently expressing apElevR2 (pcDNA3.1(+)), no Gα16 co-transfection, peptide 10^-12 to 10^-4 M, 1 h incubation, mean ± SEM, n = 3, SEM
Excerpt: as §1, §2, §3

apElevR1 = test: IP1 accumulation assay, apElevR1 in CHO-K1 cells; assay type: cell-based, Aplysia californica; settings: for apElevR1 Log[EC50] (M): logarithm of molar EC50, IP1 accumulation, CHO-K1 transiently expressing apElevR1 (pcDNA3.1(+)), no Gα16 co-transfection, peptide 10^-12 to 10^-4 M, 1 h incubation, mean ± SEM, n = 3, NA = no activation, SEM
Excerpt: as §1, §2, §3

AstC-R = settings: peptide could activate AstC-R; cited from earlier work
Excerpt: It is notable that there are 6 residu ...

[1] = target: elevenin receptor (second of two listed); settings: CHO cells, Ca2+ response, no Gα16, cited from earlier work
Excerpt: (§4) Although the function of elevenin was first studied in C.elegans, its actual elevenin receptors have not yet been found in this species. In fact, prior to our work, there are a total of 6 elevenin receptors that have been described (Fig. 7). First, there are two GPCRs that have been deorphanized as elevenin receptors in both annelid Platynereis and arthropod Ixodes[2],[9]^. There is a single elevenin receptor in Nilaparvata lugens or Bombus terrestris[23] although we could not find the sequence for Nilaparvata NlA42 in NCBI. Second, in annelid Platynereis, the EC50 values of two elevenin recep ...

[2] = target: elevenin receptor (first of two listed); settings: CHO cells, Ca2+ response, no Gα16, cited from earlier work
Excerpt: as §4

[3] = screen at 10^-4 M compared with 10^-11 M peptide, CHO-K1, n = 3, Student's t-test (Fig. 8A)
[4] = CHO-K1 transiently expressing apElevR2, no Gα16, 1 h peptide incubation, average of n = 3, rounded to two significant figures, read-out: apElevR2 [EC50]

Compound: CC[C@H](C)[C@H](NC(=O)[C@H](CCCNC(=N)N)NC(=O)[C@@H]1CCCN1C(=O)[C@@H](N)CCCNC(=N)N)C(=O)N[C@@H](CC(=O)O)C(=O)N[C@H]1CSSC[C@@H](C(=O)N[C@@H](CCCNC(=N)N)C(=O)NCC(=O)N[C@H](C(=O)N[C@@H](CO)C(=O)N[C@@H](C)C(=O)O)C(C)C)NC(=O)[C@H](C)NC(=O)[C@H](C)NC(=O)[C@H](C)NC(=O)[C@H](Cc2ccccc2)NC(=O)[C@H](C(C)C)NC(=O)[C@H](Cc2ccccc2)NC(=O)[C@H](CCCNC(=N)N)NC(=O)[C@H]([C@@H](C)O)NC1=O [[Ala^13]Elevenin] (H-RPRIDCTRFVFAAACRGVSA-OH; disulfide 6-15; N-terminus and C-terminus assumed)
- apElevR3 Log[EC50] (M) (apElevR3): -6.42±0.34 M
- EC50 (apElevR2; Table 2 prints no unit, the same values are in nM in Fig. 9J, CHO-K1, n = 3, read-out: EC50 values on apElevR2 (Table 2)): > 10000 nM
- apElevR2 Log[EC50] (M) (apElevR2): -4.48±0.21 M
- apElevR1 Log[EC50] (M) (apElevR1): -6.92±0.13 M

Compound: CC[C@H](C)[C@H](NC(=O)[C@H](CCCNC(=N)N)NC(=O)[C@@H]1CCCN1C(=O)[C@@H](N)CCCNC(=N)N)C(=O)N[C@@H](CC(=O)O)C(=O)N[C@H]1CSSC[C@@H](C(=O)N[C@@H](CCCNC(=N)N)C(=O)NCC(=O)N[C@H](C(=O)N[C@@H](CO)C(=O)N[C@@H](C)C(=O)O)C(C)C)NC(=O)[C@H](C)NC(=O)[C@@H]2CCCN2C(=O)[C@H](C)NC(=O)[C@H](Cc2ccccc2)NC(=O)[C@H](C(C)C)NC(=O)[C@H](Cc2ccccc2)NC(=O)[C@H](CCCNC(=N)N)NC(=O)[C@H]([C@@H](C)O)NC1=O [Elevenin] (H-RPRIDCTRFVFAPACRGVSA-OH; disulfide 6-15; N-terminus and C-terminus assumed)
- apElevR3 Log[EC50] (M) (apElevR3): -8.51±0.37 M
- Activation of apElevR3 in screening (IP1), in words (apElevR3; [3]): could not activate
- apElevR2 Log[EC50] (M) (apElevR2): -8.93±0.34 M
- Activation of apElevR2 in screening (IP1), in words (apElevR2; [3]): could not activate
- apElevR1 Log[EC50] (M) (apElevR1): -7.60±0.40 M
- Activation of apElevR1 in screening (IP1), in words (apElevR1; [3]): could not activate

Compound: AstC without a disulfide bond: Aplysia allatostatin-C (SHYSSMCMFNVVACY) without a disulfide bond (no disulfide bond)
- EC50 value on AstC-R compared to AstC with the disulfide bond, in words (AstC-R): significantly higher

Compound: LDCRKYPFYYRCRGISA [Ixodes elevenin, elevenin of arthropod Ixodes scapularis, ligand of its two elevenin receptors (literature)]
- EC50 ([1]; Ixodes): 5.59 nM
- EC50 ([2]; Ixodes): 0.01 nM

Compound: CC[C@H](C)[C@H](NC(=O)[C@H](CCCNC(=N)N)NC(=O)[C@@H]1CCCN1C(=O)[C@@H](N)CCCNC(=N)N)C(=O)N[C@@H](CC(=O)O)C(=O)N[C@H]1CSSC[C@@H](C(=O)N[C@@H](CCCNC(=N)N)C(=O)NCC(=O)N[C@H](C(=O)N[C@@H](CO)C(=O)N[C@@H](C)C(=O)O)C(C)C)NC(=O)[C@H](C)NC(=O)[C@@H]2CCCN2C(=O)[C@H](C)NC(=O)[C@H](C)NC(=O)[C@H](C(C)C)NC(=O)[C@H](Cc2ccccc2)NC(=O)[C@H](CCCNC(=N)N)NC(=O)[C@H]([C@@H](C)O)NC1=O [[Ala^11]Elevenin] (H-RPRIDCTRFVAAPACRGVSA-OH; disulfide 6-15; N-terminus and C-terminus assumed)
- apElevR3 Log[EC50] (M) (apElevR3): -6.55±0.21 M
- apElevR2 Log[EC50] (M) (apElevR2): -6.62±0.10 M
- apElevR1 Log[EC50] (M) (apElevR1): -6.97 ±0.20 M

Compound: CC(C)[C@@H]1NC(=O)[C@H](Cc2ccccc2)NC(=O)[C@H](CCCNC(=N)N)NC(=O)[C@H]([C@@H](C)O)NC(=O)[C@@H](NC(=O)[C@@H](N)CC(=O)O)CSSC[C@@H](C(=O)N[C@@H](CCCNC(=N)N)C(=O)NCC(=O)O)NC(=O)[C@H](C)NC(=O)[C@@H]2CCCN2C(=O)[C@H](C)NC(=O)[C@H](Cc2ccccc2)NC1=O [Elevenin5-17] (H-DCTRFVFAPACRG-OH; disulfide 2-11; N-terminus and C-terminus assumed)
- apElevR3 Log[EC50] (M) (apElevR3): -5.52±0.18 M
- EC50 (apElevR2; [4]): > 10000 nM
- apElevR2 Log[EC50] (M) (apElevR2): -4.31±0.65 M
- apElevR1 Log[EC50] (M) (apElevR1): -5.11±0.28 M

Compound: CC(C)[C@@H]1NC(=O)[C@H](Cc2ccccc2)NC(=O)[C@H](CCCNC(=N)N)NC(=O)[C@H]([C@@H](C)O)NC(=O)[C@@H](N)CSSC[C@@H](C(=O)O)NC(=O)[C@H](C)NC(=O)[C@@H]2CCCN2C(=O)[C@H](C)NC(=O)[C@H](Cc2ccccc2)NC1=O [Elevenin6-15] (H-CTRFVFAPAC-OH; disulfide 1-10)
- apElevR3 Log[EC50] (M) (apElevR3): -5.20±0.36 M
- EC50 (apElevR2; [4]): > 10000 nM
- Effect on apElevR1 (IP1 dose-response), in words (apElevR1; dose-response, CHO-K1, n = 3 (Fig. 10A, G)): did not have any effect

Compound: PDCTRFVFHPSCRGVAA [Platynereis elevenin, elevenin of annelid Platynereis dumerilii, ligand of its two elevenin receptors (literature)]
- EC50 ([1]; Platynereis): 1.3 nM
- EC50 ([2]; Platynereis): 62 nM
